According to ChEMBL document CHEMBL1250430, “Synthesis, semipreparative HPLC separation, biological evaluation, and 3D-QSAR of hydrazothiazole derivatives as human monoamine oxidase B inhibitors” (Bioorg Med Chem, 2010):
Values joined by “and” are separate entries in the source; they are usually repeats but may differ in a detail not shown here. Equal entries are not always repeated.

Assays:
[1] = target: T1, Amine oxidase [flavin-containing] A (Homo sapiens, UniProt P21397); test: biochemical
T1 sequence (P21397 whole entry): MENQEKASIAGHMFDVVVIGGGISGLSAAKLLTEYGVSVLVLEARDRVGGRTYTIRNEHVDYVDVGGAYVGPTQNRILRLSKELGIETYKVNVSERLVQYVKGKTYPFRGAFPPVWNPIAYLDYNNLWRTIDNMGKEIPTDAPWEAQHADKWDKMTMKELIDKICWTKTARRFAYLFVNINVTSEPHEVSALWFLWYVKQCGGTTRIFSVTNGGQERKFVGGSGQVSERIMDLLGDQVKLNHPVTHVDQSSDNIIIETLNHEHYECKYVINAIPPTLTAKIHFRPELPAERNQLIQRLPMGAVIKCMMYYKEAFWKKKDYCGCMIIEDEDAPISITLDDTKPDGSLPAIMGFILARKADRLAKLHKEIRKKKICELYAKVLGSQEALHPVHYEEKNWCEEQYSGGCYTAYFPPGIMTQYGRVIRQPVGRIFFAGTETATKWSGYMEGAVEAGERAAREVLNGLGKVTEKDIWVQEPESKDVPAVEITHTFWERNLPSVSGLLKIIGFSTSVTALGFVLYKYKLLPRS
Description: (§1) Inhibition of human recombinant MAOA expressed in baculovirus infected BTI-TN-5B1-4 insect cells assessed as hydrogen peroxide production from p-tyramine by amplex red assay

[2] = target: T1, Amine oxidase [flavin-containing] A; settings: bti-tn-5b1-4
Description: as §1

Structure (SMILES)	IC50 [1]	IC50 [2] [µM]
O=[N+]([O-])c1ccc(-c2csc(NN=C3CCCCCC3)n2)cc1	17.9 µM	
CC1CCC(=NNc2nc(-c3ccc(Cl)cc3Cl)cs2)CC1 (centres undefined)		81.5
O=[N+]([O-])c1ccc(-c2csc(NN=C3CCCC3)n2)cc1	0.344 µM	
N#Cc1ccc(-c2csc(NN=C3CCCC3)n2)cc1	0.644 µM	

Further lines, results first:

IC50 [1]	IC50 [2] [µM]	Structure (SMILES)
54.5 µM		Clc1ccc(-c2csc(NN=C3CCCC3)n2)c(Cl)c1
2.29 µM and 2.32 µM		Fc1ccc(-c2csc(NN=C3CCCC3)n2)c(F)c1
59.3 µM		Clc1ccc(-c2csc(NN=C3CCCCCC3)n2)c(Cl)c1
7.23 µM		Fc1ccc(-c2csc(NN=C3CCCCCC3)n2)c(F)c1
45.8 µM		Fc1ccc(-c2csc(NN=C3CCCCC3)n2)c(F)c1
